Publication PMC8744835, “Sterically Hindered Quaternary Phosphonium Salts (QPSs): Antimicrobial Activity and Hemolytic and Cytotoxic Properties” (International Journal of Molecular Sciences, 2021)

Key:
[1] = test system: Bacillus cereus ATCC 10702 NCTC 8035; assay: Antimicrobial activity, serial dilution technique in Mueller–Hinton Broth 2; type: cell-based; conditions: average of three ± SD, - means non-active
Protocol: (§1) The synthesized compounds were tested for antimicrobial activity against a number of Gram-positive bacteria, Staphylococcus aureus (Sa), Bacillus cereus (Bc) and Enterococcus faecalis (Ef), and Gram-negative bacteria, Escherichia coli (Ec) and Pseudomonas aeruginosa (Pa), including the methicillin-resistant strains S. aureus MRSA-1 (resistant to fluoroquinolones and beta-lactams) and MRSA-2 (resistant to beta-lactams). The methicillin-resistant strains S. aureus were transferred by the Republican Clinical Hospital of the Republic of Tatarstan (Kazan). The fungicidal activity against Candida albicans (Ca) and Trichophyton mentagrophytes var. gypseum (Tm) was studied. These pathogens were chosen because they are the most widespread in the food industry and the healthcare system.
(§2) The antimicrobial activity of the QPSs was determined using the serial dilution technique in Mueller–Hinton Broth 2. The cultures used for testing included the Gram-positive bacteria Staphylococcus aureus ATCC 6538P FDA 209P, Enterococcus faecalis ATCC 2921 and Bacillus cereus ATCC 10702 NCTC 8035, the Gram-negative bacteria Escherichia coli ATCC 25922 and Pseudomonas aeruginosa ATCC 9027, and the fungi Trichophyton mentagrophytes var. gypseum 1773 and Candida albicans ATCC 10231; methicillin-resistant strains of S. aureus MRSA were obtained from hospital patients with chronic tonsillitis (MRSA-1) and sinusitis (MRSA-2) in the Republican Clinical Hospital (Kazan, Russia). […] The bacterial load was 3.0 × 10^5 cfu/mL. The results were recorded every 24 h for 5 days. The cultures were incubated at 37 °C. The experiment was repeated three times. […] The minimum inhibitory concentration (MIC) was defined as the minimum concentration of a compound that inhibits the growth of the corresponding test micro-organism. The growth of bacteria as well as the absence of growth due to the bacteriostatic action of a compound was recorded.

[2] = test system: Enterococcus faecalis ATCC 2921; assay: as above; type: cell-based; conditions: Ef; average of three ± SD; - means non-active
Protocol: as §1, §2

[3] = test system: Escherichia coli ATCC 25922; assay: as above; type: cell-based; conditions: average of three ± SD, - means non-active; for MIC: Escherichia coli, ATCC25922, Ec, read-out: Minimum Inhibitory Concentration (MIC), Ec
Protocol: as §1, §2

[4] = test system: Pseudomonas aeruginosa ATCC 9027; assay: as above; type: cell-based; conditions: average of three ± SD, - means non-active; for MBC / MIC: Pseudomonas aeruginosa, ATCC9027, Pa; for MBC: read-out: Minimum Bactericidal and Fungicidal Concentration (MBC, MFC), Pa; for MIC: read-out: Minimum Inhibitory Concentration (MIC), Pa
Protocol: as §1, §2

[5] = test system: Staphylococcus aureus ATCC 6538P FDA 209P; assay: as above; type: cell-based; conditions: average of three ± SD, - means non-active
Protocol: as §1, §2

[6] = test system: methicillin-resistant S. aureus MRSA-1; assay: as above; type: cell-based, Staphylococcus aureus; conditions: - means non-active; for Minimum Inhibitory Concentration (MIC), MRSA-1: MRSA-1 (resistant to fluoroquinolones and beta-lactams)
Protocol: as §1, §2

[7] = test system: methicillin-resistant S. aureus MRSA-2; assay: as above; type: cell-based, Staphylococcus aureus; conditions: - means non-active; for Minimum Inhibitory Concentration (MIC), MRSA-2: MRSA-2 (resistant to beta-lactams)
Protocol: as §1, §2

[8] = test system: Candida albicans ATCC 10231; assay: Fungicidal activity, serial dilution technique; type: cell-based; conditions: average of three ± SD, - means non-active
Protocol: as §1
(§3) The antimicrobial activity of the QPSs was determined using the serial dilution technique in Mueller–Hinton Broth 2. The cultures used for testing included the Gram-positive bacteria Staphylococcus aureus ATCC 6538P FDA 209P, Enterococcus faecalis ATCC 2921 and Bacillus cereus ATCC 10702 NCTC 8035, the Gram-negative bacteria Escherichia coli ATCC 25922 and Pseudomonas aeruginosa ATCC 9027, and the fungi Trichophyton mentagrophytes var. gypseum 1773 and Candida albicans ATCC 10231; methicillin-resistant strains of S. aureus MRSA were obtained from hospital patients with chronic tonsillitis (MRSA-1) and sinusitis (MRSA-2) in the Republican Clinical Hospital (Kazan, Russia). Ciprofloxacin and ketoconazole were purchased from Sigma-Aldrich. The bacterial load was 3.0 × 10^5 cfu/mL. The results were recorded every 24 h for 5 days. The cultures were incubated at 37 °C. The experiment was repeated three times. […] The minimum inhibitory concentration (MIC) was defined as the minimum concentration of a compound that inhibits the growth of the corresponding test micro-organism. The growth of bacteria as well as the absence of growth due to the bacteriostatic action of a compound was recorded.

[9] = test system: Trichophyton mentagrophytes var. gypseum 1773; assay: Fungicidal activity, serial dilution technique; type: cell-based; conditions: Tm, average of three ± SD, - means non-active; for MBC / MIC: Trichophyton mentagrophytes; for MBC: read-out: Minimum Bactericidal and Fungicidal Concentration (MBC, MFC), Tm; for MIC: read-out: Minimum Inhibitory Concentration (MIC), Tm
Protocol: as §1, §3

[10] = test system: Escherichia coli ATCC 25922; assay: Antimicrobial activity, serial dilution technique in Mueller–Hinton Broth 2; type: cell-based; conditions: average of three ± SD, - means non-active

Row | Structure (SMILES) | Minimum Bactericidal and Fungicidal Concentration (MBC, MFC), Bc [1] | Minimum Inhibitory Concentration (MIC), Bc [1] | Minimum Bactericidal and Fungicidal Concentration (MBC, MFC), Ef [2] | Minimum Inhibitory Concentration (MIC), Ef [2] | Minimum Inhibitory Concentration (MIC), Ec [3] | Minimum Bactericidal and Fungicidal Concentration (MBC, MFC), Pa [4] | Minimum Inhibitory Concentration (MIC), Pa [4] | Minimum Bactericidal and Fungicidal Concentration (MBC, MFC), Sa [5] | Minimum Inhibitory Concentration (MIC), Sa [5] | Minimum Inhibitory Concentration (MIC), MRSA-1 [6] | Minimum Bactericidal and Fungicidal Concentration (MBC, MFC), MRSA-1 ([6]; MRSA-1) | Minimum Inhibitory Concentration (MIC), MRSA-2 [7] | Minimum Bactericidal and Fungicidal Concentration (MBC, MFC), MRSA-2 [7] | Minimum Bactericidal and Fungicidal Concentration (MBC, MFC), Ca [8] | Minimum Inhibitory Concentration (MIC), Ca [8] | Minimum Bactericidal and Fungicidal Concentration (MBC, MFC), Tm [9] | Minimum Inhibitory Concentration (MIC), Tm [9] | Minimum Bactericidal and Fungicidal Concentration (MBC, MFC), Ec [10] | MBC [9] | MIC [9] | further results
1 | CCCCCCCCCCCCCCC[P+](C(C)(C)C)(C(C)(C)C)C(C)(C)C [Compound 15b] | 15.6 ± 1.3 µg/mL | 0.5 ± 0.03 µg/mL | 3.9 ± 0.2 µg/mL | 0.5 ± 0.04 µg/mL | 3.9 ± 0.2 µg/mL | 3.9 ± 0.3 µg/mL | 3.9 ± 0.2 µg/mL | 0.5 ± 0.03 µg/mL | 0.2 ± 0.01 µg/mL | 0.3 ± 0.01 µg/mL | 0.3 ± 0.01 µg/mL | 0.5 ± 0.03 µg/mL | 0.5 ± 0.04 µg/mL | 15.6 ± 1.2 µg/mL | 1.9 ± 0.1 µg/mL | 62.5 ± 5.2 µg/mL | 62.5 ± 5.5 µg/mL | 3.9 ± 0.2 µg/mL |  |  | 
2 | CCCCCCCCCCCCCCCC[P+](C(C)(C)C)(C(C)(C)C)C(C)(C)C [Compound 16b] | 31.3 ± 2.4 µg/mL | 1.9 ± 0.1 µg/mL | 0.5 ± 0.03 µg/mL | 0.5 ± 0.04 µg/mL | 1.9 ± 0.1 µg/mL | 62.5 ± 5.3 µg/mL | 3.9 ± 0.02 µg/mL | 0.5 ± 0.03 µg/mL | 0.5 ± 0.03 µg/mL | 1.9 ± 0.1 µg/mL | 15.6 ± 1.2 µg/mL | 0.5 ± 0.03 µg/mL | 3.9 ± 0.2 µg/mL | 3.9 ± 0.2 µg/mL | 3.9 ± 0.2 µg/mL |  |  | 1.9 ± 0.1 µg/mL | 62.5 ± 5.5 µg/mL | 62.5 ± 5.6 µg/mL | 
3 | CCCCCCCCCCCCCCCCC[P+](C(C)(C)C)(C(C)(C)C)C(C)(C)C [Compound 17a] |  | 0.9 ± 0.07 µg/mL | 1.9 ± 0.1 µg/mL | 1.9 ± 0.1 µg/mL |  |  |  |  | 0.2 ± 0.01 µg/mL | 0.9 ± 0.06 µg/mL | 0.9 ± 0.07 µg/mL | 0.9 ± 0.07 µg/mL | 0.9 ± 0.06 µg/mL |  |  |  |  |  | 125 ± 10 µg/mL | 125 ± 10 µg/mL | MBC ([1]; Bacillus cereus, Bc, read-out: Minimum Bactericidal and Fungicidal Concentration (MBC, MFC), Bc): 15.6 ± 1.2 µg/mL; MIC [3]: 15.6 ± 1.2 µg/mL; MBC [4]: 7.8 ± 0.7 µg/mL; MIC [4]: 7.8 ± 0.5 µg/mL; MBC ([5]; Staphylococcus aureus, Sa, read-out: Minimum Bactericidal and Fungicidal Concentration (MBC, MFC), Sa): 0.5 ± 0.03 µg/mL; MBC ([8]; Candida albicans, ATCC10231, Ca, read-out: Minimum Bactericidal and Fungicidal Concentration (MBC, MFC), Ca): 3.9 ± 0.2 µg/mL; MIC ([8]; Candida albicans, ATCC10231, Ca, read-out: Minimum Inhibitory Concentration (MIC), Ca): 1.9 ± 0.1 µg/mL; MBC ([10]; Escherichia coli, ATCC25922, Ec, read-out: Minimum Bactericidal and Fungicidal Concentration (MBC, MFC), Ec): 15.6 ± 1.3 µg/mL
4 | CCCCCCCCCCCCCCCCCC[P+](C(C)(C)C)(C(C)(C)C)C(C)(C)C [Compound 18a] | 31.3 ± 2.5 µg/mL | 7.8 ± 0.6 µg/mL | 0.9 ± 0.07 µg/mL | 0.9 ± 0.07 µg/mL |  |  |  | 0.9 ± 0.07 µg/mL | 0.9 ± 0.08 µg/mL | 0.9 ± 0.07 µg/mL |  | 0.9 ± 0.07 µg/mL | 0.9 ± 0.07 µg/mL | 3.9 ± 0.2 µg/mL | 1.9 ± 0.1 µg/mL |  |  | 15.6 ± 1.1 µg/mL | 125 ± 9 µg/mL | 125 ± 11 µg/mL | MIC [3]: 15.6 ± 1.3 µg/mL; MBC [4]: 62.5 ± 5.6 µg/mL; MIC [4]: 15.6 ± 1.2 µg/mL; MBC ([6]; Staphylococcus aureus, MRSA, MRSA-1, read-out: Minimum Bactericidal and Fungicidal Concentration (MBC, MFC), MRSA-1): 15.6 ± 1.2 µg/mL
5 | CCCCCCCCCCCCCCCCCC[P+](C(C)(C)C)(C(C)(C)C)C(C)(C)C [Compound 18b] | 125 ± 11 µg/mL | 31.3 ± 2.2 µg/mL | 3.9 ± 0.2 µg/mL | 1.9 ± 0.1 µg/mL | 15.6 ± 1.3 µg/mL | 31.3 ± 2.5 µg/mL | 15.6 ± 1.3 µg/mL | 3.9 ± 0.2 µg/mL | 1.9 ± 0.1 µg/mL | 7.8 ± 0.6 µg/mL | 15.6 ± 1.2 µg/mL | 3.9 ± 0.2 µg/mL | 3.9 ± 0.3 µg/mL | 15.6 ± 1.2 µg/mL | 7.8 ± 0.7 µg/mL | 250 ± 19 µg/mL | 250 ± 19 µg/mL | 62.5 ± 5.4 µg/mL |  |  | 
